Reference: patent US20250120942A1, “BRAIN FUNCTION IMPROVING AGENT” (OSAKA UNIVERSITY, priority 2021, published 2025)

Key:
[1] = system: extracellular acetylcholine in the cerebral cortex; test: Amount of extracellular acetylcholine in mouse brain by in vivo microdialysis (Test Example 1); set-up: species or system ddY mouse; settings: oral 30 mg/kg, FIG. 1
Experimental: The compound A, B, and C were administered orally to the mouse and the effect on the amount of extracellular acetylcholine in the brain was examined. The brain microdyalysis method using the mouse is proposed as a test for evaluating cognitive dysfunction including Alzheimer type dementia. The brain microdyalysis method is a system that can monitor the variation of extracellular neurotransmitter release in real time at the local parts in the brain while the test animals are moving freely without anesthesia.
(§1) 7-weeks-old male ddY mice were purchased from Japan SLC, Inc. and subjected to the experiment after one week habituation period. The animals were reared in the rearing chamber provided with air conditioner (under the condition that the temperature was 22° C.±1° C., the relative humidity was 50±10%, and the irradiation time was 12 hours (8:00 to 20:00)). The feeding method was that the commercially available MF powdery feed (manufactured by Oriental Yeast Co., ltd.) and tap water were taken freely.
In the two days before the start of the experiment, the fixing operation of the guide cannula for inserting the dialysis probe in the mouse was conducted in advance. Under the deep anesthetized conditions, the guide cannula (depth 4 mm) (manufactured by Eicom Corp.,) was inserted in and fixed on cerebral cortex prefrontal area (which was 1.9 mm forward and 0.5 mm right side from the bregma and to which the depth from cranial surface was 0.8 mm). Buprenorphine (0.01 mg/kg manufactured by Sigma-Aldrich Japan) was administered to the mouse as analgesic after the operation. Each mouse was reared in the separate cage after the operation.
In the step of measuring extracellular acetylcholine in the brain, the dialysis probe (membrane length 3 mm) (manufactured by Eicom Corp.,) was inserted in the guide cannula and the Ringer's solution in the Japanese Pharmacopeia (containing NaCl (147.2 mM), KCl (4.0 mM), and CaCl2 (2.2 mM); manufactured by FUSO CHEMICAL CO., LTD.) was perfused at the flow velocity of 1 μL/min. The sample obtained by the perfusion was collected every 20 minutes and was immediately continuously automatically injected in the high-speed liquid chromatography/electrochemical detector (HPLC/ECD) system (manufactured by Eicom Corp., HTEC-500) together with the internal standard material (isopropylhomocholine, 250 fmol) and acetylcholine was measured under the condition described below.
• Column: Eicompak AC-GEL (2.0 mm; i.d.×150 mm) (manufactured by Eicom Corp.,) • Precolumn: PC-05-03 (3.0 mm; i.d.×40 mm) (manufactured by Eicom Corp.,) • Enzyme-immobilized column: AC-Enzympak (3.0 mm; i.d.) (manufactured by Eicom Corp.,) • Mobile Phase: 50 mM potassium hydrogen carbonate buffer containing 400 mg/L sodium decansulfonic acid and 134 μM EDTA (pH 8.3) • Flow Velocity: 150 μl/min. • Temperature of column: 33° C. • Applied voltage of ECD: +450 mV • Reference electrode: Ag/AgCl electrode • Work electrode: platinum electrode
The compound A prepared according to the procedure described in Manufacturing Example 1 was dissolved in 2.5% DMSO solution in advance to prepare for the test. […] The amount of the extracellular acetylcholine released was measured by the procedure described above in (a) Used animal and Rearing Procedure in real time for 120 minutes after the administration. The mouse in Vehicle group took only 2.5% DMSO solution orally in the same way and the amount of the extracellular acetylcholine was measured. […]

[2] = system: scopolamine-induced amnesia mouse; test: Y-maze test, short-term working memory of scopolamine-induced amnesia mouse (Test Example 2); format: in vivo, ddY mouse; settings: for scopolamine-induced reduction in working memory (Spontaneous Alternation): FIG. 2(C)
Experimental: The effect of inhibiting lowering of short-term memory was examined by orally or subcutaneously (intraperitoneally) administering the compound A to the mouse.
as §1
The compound A prepared according to the procedure described in Manufacturing Example 1 was dissolved in 2.5% DMSO solution in advance. There were 15 mice in each group, and the 30 mg/kg compound administration group and the 10 mg/kg compound administration group were established and orally administered. The mice of the control group and Vehicle group were orally administered with only 2.5% DMSO solution. In the same manner the compound B and the compound C were orally administered to 10 mice at a dose of 30 mg/kg respectively. Each mouse of the administration groups of the compound A to C and the vehicle group was intraperitoneally administered with scopolamine hydrobromide (manufactured by Sigma-Aldrich Japan S1875) (a dose of 1 mg/kg) which is muscarinic acetylcholine receptor antagonist 30 minutes after the administration. The mice of the control group which were not administered with scopolamine hydrobromide were intraperitoneally administered with (Japanese Pharmacopoeia) physiological saline solution (OTSUKA NORMAL SALINE 3311401A2026). At 30 minutes after the final administration, Y-maze test was conducted, and the working memory was evaluated. The test using the mice orally administered was separately conducted under the same condition as that described above for comparative evaluation of the intraperitoneal administration.
The Y-maze manufactured by Brain Science. idea Co., Ltd. was used for the test. The maze was the maze 3 courses of which were made into Y-letter shape having one selection point and arranged at interval of an angle of 120 degree. […] The mouse put on the gray course (made of polyvinyl chloride) was kept in the conditions and the mouse can see nothing but the upper part. Any one of the 3 courses of the maze was set as a starting point. After placing the mouse quietly at the starting point, the number of the times the mouse entered each course was record per 8 minutes, and as well as which course and in what order the mouse entered it. The ratio of the number of three consecutive entries into different courses (the number of the alternation behavior) to the total number of the selections was calculated as Spontaneous Alternation (%) according to the following formula and was used as an index of the short-term working memory.
From the results obtained, the mean (Mean) and the standard error (SEM) were calculated. The significant difference between the control group and the Vehicle group and between the compound A administration group and the Vehicle group was assessed by Turkey-Kramer's test. The level of significance was set to *P<0.05 and **p<0.01.

O=C1CC[C@H](Cc2cc(O)cc(O)c2)O1 [compound A, (R)-5-(3,5-dihydroxyphenyl)-γ-valerolactone]
amount of extracellular acetylcholine in the cerebral cortex versus Vehicle group ([1]; 40 and 60 minutes after the administration): significant increase | amount of extracellular acetylcholine in the cerebral cortex (ratio to basic released amount) ([1]; measured for 120 minutes after administration, compared with before administration): increased | ameliorating the impairment of short-term working memory (Spontaneous Alternation) ([2]; oral 30 mg/kg, scopolamine 1 mg/kg i.p., FIG. 2(A),(B)): significant effect of inhibiting the lowering of short-term working memory | lowering of the short-term memory due to scopolamine (Spontaneous Alternation) ([2]; oral administration groups (10 mg/kg and 30 mg/kg), scopolamine 1 mg/kg i.p. 30 minutes later, FIG. 2(A)): inhibited | scopolamine-induced reduction in working memory (Spontaneous Alternation) ([2]; oral administration): inhibited scopolamine-induced reductions in working memory | scopolamine-induced reduction in working memory (Spontaneous Alternation) ([2]; subcutaneous administration): inhibited scopolamine-induced reductions in working memory
